Tests used:
Format in all cases: in vivo
Male SD rats [1] = test: Rat nicotine self administration, acute treatment
Description: Male SD rats were trained to self administer i.v. nicotine (0.03 mg/kg/inj) daily (Monday to Friday) in standard operant chambers with retractable levers (MED Associates, Inc) as previously published (Levin et al., 2003; Levin et al., 2007). During the daily 45 min session, rats received 0.05 ml infusion of 0.03 mg/kg/infusion of nicotine every time the active lever was pressed. A cue light and tone turned on for 0.5 sec together with the activation of a pump that delivered the nicotine solution. Daily sessions were run for at least 10 days before the initiation of drug testing. Solutions of compounds of Example 2 and Example 5 were prepared fresh daily in Formulation 2B: 25% PEG400/5% Vit E TPGS/1% SLS/69% water with 0.5% Methocel) for oral dosing. Compound of Example 2 doses were administered in a counterbalanced design for testing 1 hr before each nicotine session. Every rat received all drug doses and vehicle in a randomly assigned order. The oral drug administrations were made twice per week.
Compound of Example 5 was tested in a study using 4 independent groups. Each group received either oral vehicle or 1 of the 3 doses of compound of Example 5 (5, 10 or 30 mg-eq/kg). […] The 5 mg/kg dose was ineffective.

[2] = tested on: male Sprague Dawley (SD) rats; test: Rat cocaine cue reinstatement; conditions: for inhibition of cocaine cue reinstatement vs vehicle: 1 hr before session
Description: Training of male Sprague Dawley (SD) rats had 3 separate stages. First, during self administration, animals were trained to lever press for cocaine with presentation of concomitant cues associated with drug delivery. Rats that reached criteria for addiction were included in the study. Afterward, during cue extinction, cocaine-cue dependent behavior was extinguished. Lastly, during cocaine cue reinstatement, the effect of compounds was tested on lever presses upon cue presentation (FIG. 2).
Rats were trained to self administer i.v. cocaine (0.35 mg/kg/injection) daily (Monday to Friday) in standard operant chambers with retractable levers (Coulbourn Instruments, PA). During the daily 2 hr session, rats received a 0.05 ml infusion of 0.35 mg/kg cocaine every time the active lever was pressed. A cue light and tone turned on for 2 sec together with activation of a pump that delivered the cocaine solution. Rats were required to maintain an infusion rate of ≥20+ per day for at least 10 days before being moved to extinction training.
During extinction sessions lever presses no longer produced cocaine infusion and cue light/tone presentation was absent. Rats received a maximum of 15 extinction sessions.
On the next day after reaching extinction criteria, rats were treated orally with vehicle (Formulation 2B: 25% PEG400/5% Vit E TPGS/1% SLS/69% water with 0.5% Methocel) or drug (compound of Example 2 or compound of Example 5) before the cue reinstatement session. Cue reinstatement began with a tone and cue light. This 2 hr session was identical to the self-administration session (cue light and tone present upon active lever press) except that no cocaine was delivered. The number of active lever presses was compared to extinction lever responding. This is considered a measure of reinstatement. The next day, rats were returned to extinction sessions for at least 2 or 3 more sessions. Rats then received a second and last reinstatement session with an opposite treatment to the one received on the first reinstatement session (vehicle or drug treatment). […] The light/tone presentation triggers this response and it is interpreted as a measure of reinstatement even though cocaine is not available.

Male SD rats [3] = test: Rat nicotine self administration, 7-day chronic treatment; conditions: 7 consecutive days
Description: Upon completion of the acute compound of Example 5 treatment study, the same animals were used to test the effect of 7-day chronic oral administration of compound of Example 5 in the nicotine self administration model. Rats were treated orally with compound of Example 5 (5, 10 or 30 mg-eq/kg) or vehicle 1 hr before nicotine self administration session for 7 consecutive days. […] Similar to the acute treatment, the 5 mg-eq/kg dose was ineffective (FIG. 7). […] Animals in nicotine self administration studies had to reach pre defined criteria (e.g. rat strain, minimum number of nicotine infusions, consistent baseline nicotine self administration throughout the study, patent iv catheters, etc.) to be included in analysis.

SMILES | effect on number of nicotine infusions (Male SD rats [1]; 1 mg/kg oral) | effect on number of nicotine infusions (Male SD rats [1]; 5 mg/kg oral) | effect on cocaine cue reinstatement ([2]; 2.5 mg-eq/kg oral, lowest dose tested) | inhibition of cocaine cue reinstatement vs vehicle ([2]; 2.5 mg/kg eq oral, N.S.) | inhibition of cocaine cue reinstatement vs vehicle ([2]; 5 mg-eq/kg oral) | inhibition of cocaine cue reinstatement vs vehicle ([2]; 10 mg-eq/kg oral) | inhibition of cocaine cue reinstatement vs vehicle ([2]; 30 mg-eq/kg oral) | effect on number of nicotine infusions (Male SD rats [3]; 5 mg-eq/kg oral) | inhibition of number of nicotine infusions vs vehicle (Male SD rats [3]; 10 mg-eq/kg oral) | inhibition of number of nicotine infusions vs vehicle (Male SD rats [3]; 30 mg-eq/kg oral) | effect on number of nicotine infusions (Male SD rats [1]; 5 mg/kg dose oral, independent groups) | inhibition of number of nicotine infusions vs vehicle (Male SD rats [1]; 10 mg-eq/kg oral, independent groups) | inhibition of number of nicotine infusions vs vehicle (Male SD rats [1]; 30 mg-eq/kg oral, independent groups)
O=C(NCc1ccc(-c2cc[nH]c(=O)c2)cc1)c1c(Cl)cccc1Cl [Compound 2, 2,6-dichloro-N-[4-(2-oxo-1,2-dihydro-pyridin-4-yl)-benzyl]-benzamide] | without effect | without effect |  |  |  |  |  |  |  |  |  |  | 
O=C(NCc1ccc(-c2ccn(COP(=O)(O)O)c(=O)c2)cc1)c1c(Cl)cccc1Cl [Compound 14, phosphoric acid mono-(4-{4-[(2,6-dichloro-benzoylamino)-methyl]-phenyl}-2-oxo-2H-pyridin-1-ylmethyl) ester] |  |  | not significantly different from vehicle | 30% | 59% | 55% | 50% | ineffective | 48% | 62% | ineffective | 51% | 68%
